Assay [1] deals with late stage IV-V P. falciparum NF54 gametocytes. Set-up: method as in Coertzen et al., 2018, Wong et al., 2019. Conditions: ref Coertzen et al., 2018, Wong et al., 2019, cited from earlier work; for IC50: NF54 gametocytes, luciferase, 72 h, mean ± SEM, read-out: Late stage IV-V (luc 72 h) IC50; for Fold change preference ratio LG to EG: late vs immature stage gametocytes.
Assay [2] concerns LO2 human normal hepatocytes. The experiment in a line: MTT cytotoxicity assay LO2. It counts as cell-based. Conditions: Hepatocyte, MTT, 72 h, ± SD, read-out: IC50 LO2. Here is the method:
(§1) Proliferative and non-proliferative mammalian cell lines: human liver and lung cancer cell lines HepG2 and A549, and immortalized normal liver LO2 and lung BEAS-2B cells were purchased from ATCC (Manassas, VA, United States). Cells were cultured in RPMI-1640 medium supplemented with 10% fetal bovine serum and antibiotics penicillin (50 U/mL) and streptomycin (50 μg/ml; Invitrogen, United Kingdom). All cells were incubated at 37°C in a 5% humidified CO2 incubator.
(§2) All test compounds were dissolved in DMSO at a final concentration of 50 mM and stored at −20°C before use. Cytotoxicity was assessed with A549, HepG2, BEAS-2B and LO2 cells. The MTT assay with 3-(4,5-dimethylthiazole-2yl)-2,5-diphenyltetrazolium bromide (5 mg/ml) was performed as previously described ([Ng et al., 2022]). Briefly, 4 × 10^3 cells per well were seeded in 96-well plates before drug treatment. After overnight cell culture, the cells were exposed to different concentrations of selected compounds (0.19–100 μM) for 72 h. Cells without drug treatment were used as control. Next, 10 μl of the MTT solution was added to each well and incubated at 37°C for another 4 h. Solubilization buffer (100 μl) was then added (10 mM HCl in a solution of 10% of SDS) and incubated overnight. The absorbance A at 570 nm was measured on the next day. The percentage of cell viability was calculated using the following formula: Cell viability (%) = Atreated/Acontrol × 100. Dose response curves for all assays are given in the Supplementary Figures S3–S6.
(§3) Cytotoxicity was assessed for each of artemisinin, DHA and artemether, and the amino-artemisinins artemiside and artemisone, and celastrol against A549 human lung carcinoma, BEAS-2B non-tumorigenic human bronchial epithelium, HepG2 liver hepatocellular carcinoma and LO2 human normal hepatocytes using the MTT assay ([Ng et al., 2022]). Data are presented in Table 4, and dose response curves are given in the Supplementary Figures S3–S6.
For orientation: Tetrazolium assays rely on reduction of a dye to a coloured formazan, in cell work by metabolically active cells.

In assay [3] the test system is HepG2 liver hepatocellular carcinoma. The experiment in a line: MTT cytotoxicity assay HepG2. It counts as cell-based, human. Conditions: for IC50: Homo sapiens, HepG2, MTT, 72 h, ± SD, read-out: IC50 HepG2; for SI, selectivity index IC50 normal cell line/IC50 tumour cell line: LO2/HepG2. Here is the method:
as §1, §2, §3

Assay [4] has as its system asexual blood stage P. falciparum NF54 (drug sensitive). Set-up: method as in Coertzen et al., 2018; Wong et al., 2019. The conditions noted are these: SYBR Green I, mean ± SEM, ref Coertzen et al., 2018, Wong et al., 2019; cited from earlier work.
For assay [5], the system named is BEAS-2B non-tumorigenic human bronchial epithelium. The experiment in a line: MTT cytotoxicity assay BEAS-2B. Conditions: MTT, 72 h, ± SD, read-out: IC50 BEAS-2B. It counts as cell-based. Here is the method: as §1, §2, §3
The test system of assay [6] is asexual blood stage P. falciparum W2 (multidrug resistant). Set-up: method as in Coertzen et al., 2018; Wong et al., 2019. Conditions: ref Coertzen et al., 2018, Wong et al., 2019, cited from earlier work; for IC50: asexual blood stage, SYBR Green I, mean ± SEM.
The test system of assay [7] is asexual blood stage P. falciparum K1 (multidrug resistant). The conditions noted are these: ref Coertzen et al., 2018, Wong et al., 2019, cited from earlier work; for IC50: asexual blood stage, SYBR Green I, mean ± SEM.
Assay [8] relates to A549 human lung carcinoma. The assay can be described thus: MTT cytotoxicity assay A549. It counts as cell-based. Conditions: for IC50: Homo sapiens, A549, MTT, 72 h, ± SD, read-out: IC50 A549. Here is the method:
as §1, §2, §3

In assay [9] the test system is immature stage II-III P. falciparum NF54 gametocytes. Set-up: method as in Coertzen et al., 2018, Wong et al., 2019. The conditions noted are these: ref Coertzen et al., 2018, Wong et al., 2019, cited from earlier work; for IC50: NF54 gametocytes, luciferase, 48 h, mean ± SEM, read-out: Immature stage II-III (luc 48 h) IC50; for Fold change preference ratio EG to LG: immature vs late stage gametocytes.

Assay [10] concerns LO2 human normal hepatocytes. The experiment in a line: Cytotoxicity drug combination (isobole) assay LO2. It counts as cell-based. On the procedure: (§4) For the drug combination inhibitory assays, six drug preparations, of which four comprised combinations of either artemiside or artemisone with celastrol in a fixed ratio of 80:20, 60:40, 40:60, and 20:80 were prepared and screened against HepG2 liver hepatocellular carcinoma and LO2 human normal hepatocytes respectively. Two of these six preparations employed each of artemiside, artemisone or celastrol alone at a concentration approximately 5–7 times higher than the IC50 of the individual drug as presented in Table 4. […] Thus, six combinations for artemiside (µM) and celastrol (µM) prepared were 500:0, 400:4, 300:8, 200:12, 100:16, and 0:20, respectively.
(§5) As above for the malaria combination assays, a mean ΣFIC<1.0 represents a synergistic interaction, >1.3 represents an antagonistic interaction and ΣFIC = 1 represents an indifferent or additive interaction. Additivity, synergism and antagonism were also be established from the linear plots constructed from the FIC values of each of the drugs. A concave hyperbolic plot indicates synergism, a convex hyperbolic plot indicates an antagonistic interaction, and a straight line indicates an additive interaction. Isobole analysis of the combinations of each of artemiside and artemisone in combination with celastrol was performed against HepG2 and LO2 cells respectively. In Figure 5 is presented the isoboles for each drug combination.
(§6) Next, combinations of each of artemiside and artemisone with celastrol were examined, according to the method used to establish additivity/synergism described above. […] Against the normal hepatocyte LO2 cell line, whilst the interaction of artemisone with celastrol was synergistic, that of artemiside was additive. Synergism and additivity were also evident from the linear plots determined from the FIC values of each of the drugs (Table 5 and Figure 6). Thus, synergism is confirmed for combinations of the amino-artemisinins with celastrol against the HepG2 carcinoma cell line, and for artemisone-celastrol against human normal hepatocyte LO2.

In assay [11] the test system is HepG2 liver hepatocellular carcinoma. The experiment in a line: Cytotoxicity drug combination (isobole) assay HepG2. It counts as cell-based, human. On the procedure:
as §4, §5, §6

These results are taken from publication PMC9479156 (Frontiers in Pharmacology, 2022).

As a reminder, the IC50 is the concentration needed to halve the response being measured.

Some results are limits rather than exact numbers.

Take `CO[C@H]1O[C@@H]2O[C@@]3(C)CC[C@H]4[C@H](C)CC[C@@H]([C@H]1C)[C@@]24OO3` [Artemether, artemether]: the IC50 in [1] was 136 ± 85.9 nM; in [2], greater than 100000 nM; in assay [3], 1020 ± 200 nM; in [4] it was 1.86 ± 0.17 nM; in assay [5], greater than 100000 nM; in assay [6] it was 7 ± 1 nM. Besides, the figures for the 50% inhibitory concentration (IC50) in assay [7], in assay [8] and in assay [9] were 9 ± 2 nM, greater than 100000 nM and 37.7 ± 2 nM, respectively. Further, the “Fold change preference ratio LG to EG” value in assay [1] is given as 0.28. In addition, the “SI, selectivity index IC50 normal cell line/IC50 tumour cell line” value in assay [3] is reported as greater than 98. In addition, the “RI = IC50 W2/IC50 NF54” value in assay [6] was 3.8. Further, the “RI (resistance index) = IC50 K1/IC50 NF54” value in assay [7] is listed as 4.8. Besides, the “Fold change preference ratio EG to LG” value in assay [9] is given as 3.6.
Regarding `C[C@H]1[C@H](N2CCSCC2)O[C@@H]2O[C@@]3(C)CC[C@H]4[C@H](C)CC[C@@H]1[C@@]24OO3` [Artemiside, artemiside], the IC50 in [1] was 1.5 ± 0.5 nM; in assay [2] it was greater than 100000 nM; in [3], 550 ± 20 nM; in [4], 1.11 ± 0.17 nM; in assay [5], 32100 ± 2700 nM; in assay [6], 1.75 ± 0.27 nM. Also, the 50% inhibitory concentration (IC50) was 1.6 ± 0.4 nM in assay [7], greater than 100000 nM in assay [8] and 16.4 ± 1 nM in assay [9]. In [1], the “Fold change preference ratio LG to EG” value was 10.9. In addition, the FIC in [10] (artemiside:celastrol drug ratio 20:80, LO2) amounted to 0.09; in assay [10] (artemiside:celastrol drug ratio 40:60, LO2), 0.33; in assay [10] (artemiside:celastrol drug ratio 60:40, LO2), 0.45; in assay [10] (artemiside:celastrol drug ratio 80:20, LO2), 0.59; in [11] (artemiside:celastrol drug ratio 20:80, HepG2) it was 0.16; in [11] (artemiside:celastrol drug ratio 40:60, HepG2) it was 0.42. Further, the FIC in assay [11] (artemiside:celastrol drug ratio 60:40, HepG2) worked out at 0.4; in assay [11] (artemiside:celastrol drug ratio 80:20, HepG2), 0.57. Besides, the results for the “SI, selectivity index IC50 normal cell line/IC50 tumour cell line” value in assay [3], in [3] (listed as artemiside) and in assay [8] (BEAS-2B/A549) were greater than 183, greater than 170 and less than 0.3, respectively. Also, the “RI = IC50 W2/IC50 NF54” value in assay [6] is given as 1.58. Further, the “RI (resistance index) = IC50 K1/IC50 NF54” value in [7] is 1.47. The “Fold change preference ratio EG to LG” value in assay [9] is 0.09.
As for `C[C@@H]1CC[C@H]2[C@@H](C)C(=O)O[C@@H]3O[C@@]4(C)CC[C@@H]1[C@]32OO4` [Artemisinin, artemisinin, reference compound], the IC50 in assay [2], in [3], in assay [5] and in assay [8] was greater than 100000 nM each time.
Take `C[C@H]1[C@H](OC(=O)CCC(=O)O)O[C@@H]2O[C@@]3(C)CC[C@H]4[C@H](C)CC[C@@H]1[C@@]24OO3` [Artesunate, artesunate]: the IC50 in assay [1] was 259 ± 80 nM; in assay [4] it was 3 ± 0.29 nM; in assay [6], 2.4 ± 0.4 nM; in [7], 4 ± 1 nM; in assay [9], 62.8 ± 3 nM.
Regarding `C[C@@H]1CC[C@H]2[C@@H](C)C(O)O[C@@H]3O[C@@]4(C)CC[C@@H]1[C@]32OO4` (stereo partly drawn) [DHA], the IC50 was 33.7 ± 1.98 nM in assay [1]; 30700 ± 2200 nM in assay [2]; greater than 100000 nM in [3]; 2.51 ± 0.19 nM in [4]; 21200 ± 1400 nM in assay [5]; 1.74 ± 0.22 nM in assay [6]. For the same compound, the half-maximal inhibitory concentration (IC50) in assay [7] was 1.51 ± 0.33 nM; in assay [8], 62600 ± 3400 nM; in assay [9], 43 ± 3.9 nM. For the same compound, the “Fold change preference ratio LG to EG” value in [1] was 1.3. For the same compound, the “RI = IC50 W2/IC50 NF54” value in [6] is 0.7. For the same compound, the “RI (resistance index) = IC50 K1/IC50 NF54” value in [7] is listed as 0.6. For the same compound, in assay [9], the “Fold change preference ratio EG to LG” value is on record as 0.78.
